Reference: patent US20190023733A1, “AMINE DERIVATIVES OF LUPANES WITH HIV MATURATION INHIBITORY ACTIVITY” (priority 2016, published 2019)
Where a name gives a salt, the structure may show the parent alone.

How the values were obtained:
HIV = details: cited from earlier work
HIV-1 NL4-3 wt = assay: MT4 cell antiviral assay, NL4-3 wt; format: cell-based; details: Human immunodeficiency virus 1, NL43, 120 h; MT4 cells, 5 days, HIV-induced cytopathic effect
HIV-1 V370A = assay: MT4 cell antiviral assay, V370A; format: cell-based; details: Human immunodeficiency virus 1, MT4, 120 h, read-out: EC50 V370A
HIV-1 (strain IIIB) = assay: MT4 cell antiviral assay (as described in the method); format: cell-based; details: Human immunodeficiency virus 1, IIIB, control and standard in every assay, propidium iodide readout, read-out: expected range of IC50 values
Method: Antiviral HIV activity and compound-induced cytotoxicity were measured in parallel by means of a propidium iodide based procedure in the human T-cell lymphotropic virus transformed cell line MT4. Aliquots of the test compounds were serially diluted in medium (RPMI 1640, 10% fetal calf serum (FCS), and gentamycin) in 96-well plates (Costar 3598) using a Cetus Pro/Pette. Exponentially growing MT4 cells were harvested and centrifuged at 1000 rpm for 10 min in a Jouan centrifuge (model CR 4 12). Cell pellets were resuspended in fresh medium (RPMI 1640, 20% FCS, 20% IL-2, and gentamycin) to a density of 5×10^5 cells/ml. […]
For propidium iodide readout, 27 μl of 5% Nonidet-40 was added to each well of the incubation plate. […] The plates were analyzed in an automated assay instrument (Screen Machine, Idexx Laboratories). […]
For MTS readout, 20 μl CellTiter 96 AQ One Solution reagent (Promega #G3582) was added to each well. At 75 minutes following the addition of MTS reagent, absobance was read at 492 nm using a Tecan Sunrise 96-well plate reader. […]
For each assay plate, the results (relative fluorescence units, rfU, or OD values) of wells containing uninfected cells or infected cells with no compound were averaged, respectively. […] Percent of cells remaining is determined by the following formula: […]

Compound | EC50 (HIV-1 NL4-3 wt) [µM] | EC50 (HIV-1 V370A) [µM] | further results
C=C(C)[C@@H]1CC[C@]2(C(=O)O)CC[C@]3(C)[C@H](CC[C@@H]4[C@@]5(C)CC[C@H](OC(=O)CC(C)(C)C(=O)O)C(C)(C)[C@@H]5CC[C@]43C)[C@@H]12 [Bevirimat] | – | – | mean reduction of HIV viral load (HIV; patients with trough levels >=20 μg/mL and no key baseline Gag polymorphisms at Q369, V370 or T371): 1.3 log10/mL; viral load reduction versus patients without Gag polymorphisms (HIV; users with Gag polymorphisms at Q369, V370 or T371): significantly lower load reductions
CC(C)C1=C2[C@H]3CC[C@@H]4[C@@]5(C)CC=C(c6ccc(C(=O)O)cc6)C(C)(C)[C@@H]5CC[C@@]4(C)[C@]3(C)CC[C@@]2(NCCN(CCN(C)C)Cc2ccc(Cl)cc2)CC1=O [Example 4, 4-((3aR,5aR,5bR,7aR,11aS,11bR,13aS)-3a-((2-((4-Chlorobenzyl)(2-(dimethylamino)ethyl)amino)ethyl)amino)-1-isopropyl-5a,5b,8,8,11a-pentamethyl-2-oxo-3,3a,4,5,5a,5b,6,7,7a,8,11,11a,11b,12,13,13a-hexadecahydro-2H-cyclopenta[a]chrysen-9-yl)benzoic acid hydrochloride salt] | 0.029 | – | –
CC(C)C1=C2[C@H]3CC[C@@H]4[C@@]5(C)CC=C(c6ccc(C(=O)O)cc6)C(C)(C)[C@@H]5CC[C@@]4(C)[C@]3(C)CC[C@@]2(NCCN2CCS(=O)(=O)CC2)CC1=O [Example 5, 4-((3aR,5aR,5bR,11aS)-3a-((2-(1,1-Dioxidothiomorpholino)ethyl)amino)-1-isopropyl-5a,5b,8,8,11a-pentamethyl-2-oxo-3,3a,4,5,5a,5b,6,7,7a,8,11,11a,11b,12,13,13a-hexadecahydro-2H-cyclopenta[a]chrysen-9-yl)benzoic acid hydrochloride] | 0.03 | 0.776 | –
CC(C)C1=C2[C@H]3CC[C@@H]4[C@@]5(C)CC=C(C6=CCC(C(=O)O)CC6)C(C)(C)[C@@H]5CC[C@@]4(C)[C@]3(C)CC[C@@]2(NCCN2CCC(S(C)(=O)=O)CC2)CC1=O (stereo partly drawn) [Example 1, 4-((3aR,5aR,5bR,7aR,11aS,11bR,13aS)-1-Isopropyl-5a,5b,8,8,11a-pentamethyl-3a-((2-(4-(methylsulfonyl)piperidin-1-yl)ethyl)amino)-2-oxo-3,3a,4,5,5a,5b,6,7,7a,8,11,11a,11b,12,13,13a-hexadecahydro-2H-cyclopenta[a]chrysen-9-yl)cyclohex-3-enecarboxylic acid] | 0.099 | 0.352 | –
CC(C)C1=C2C3CCC4[C@@]5(C)CC=C(c6ccc(C(=O)O)cc6)C(C)(C)C5CC[C@@]4(C)[C@]3(C)CC[C@@]2(NC(=O)CN2CCS(=O)(=O)CC2)CC1=O (stereo partly drawn) [Example 6, 4-((3aR,5aR,5bR,11aS)-3a-(2-(1,1-Dioxidothiomorpholino)acetamido)-1-isopropyl-5a,5b,8,8,11a-pentamethyl-2-oxo-3,3a,4,5,5a,5b,6,7,7a,8,11,11a,11b,12,13,13a-hexadecahydro-2H-cyclopenta[a]chrysen-9-yl)benzoic acid hydrochloride salt] | 0.159 | – | –
CC(C)C1=C2C3CCC4[C@@]5(C)CC=C(c6ccc(C(=O)O)cc6)C(C)(C)C5CC[C@@]4(C)[C@]3(C)CC[C@@]2(NC(=O)CN(CCN(C)C)Cc2ccc(Cl)cc2)CC1=O (stereo partly drawn) [Example 8, 4-((3aR,5aR,5bR,11aS)-3a-(2-((4-chlorobenzyl)(2-(dimethylamino)ethyl)amino)acetamido)-1-isopropyl-5a,5b,8,8,11a-pentamethyl-2-oxo-3,3a, 4,5,5a,5b,6,7,7a,8,11,11a,11b,12,13,13a-hexadecahydro-2H-cyclopenta[a]chrysen-9-yl)benzoic acid] | 0.002 | 0.008 | –
Cc1cn([C@H]2C[C@H](N=[N+]=[N-])[C@@H](CO)O2)c(=O)[nH]c1=O [3′-azido-3′-deoxythymidine] | – | – | IC50 (HIV-1 (strain IIIB)): 0.04 to 0.12 µM
CC(C)C1=C2C3CCC4[C@@]5(C)CC=C(c6ccc(C(=O)O)cc6)C(C)(C)C5CC[C@@]4(C)[C@]3(C)CC[C@@]2(NC(=O)N(CCN(C)C)Cc2ccc(Cl)cc2)CC1=O (stereo partly drawn) [Example 7, 4-((3aR,5aR,5bR,11aS)-3a-(3-(4-chlorobenzyl)-3-(2-(dimethylamino)ethyl)ureido)-1-isopropyl-5a,5b,8,8,11a-pentamethyl-2-oxo-3,3a,4,5,5a,5b,6,7,7a,8,11,11a,11b,12,13,13a-hexadecahydro-2H-cyclopenta[a]chrysen-9-yl)benzoic acid] | 0.0063 | – | –
CC(C)C1=C2[C@H]3CC[C@@H]4[C@@]5(C)CC=C(C6=CCC(C(=O)O)CC6)C(C)(C)[C@@H]5CC[C@@]4(C)[C@]3(C)CC[C@@]2(NCCN2CCS(=O)(=O)CC2)CC1=O (stereo partly drawn) [Example 2, 4-((3aR,5aR,5bR,7aR,11aS,11bR,13aS)-3a-((2-(1,1-Dioxidothiomorpholino)ethyl)amino)-1-isopropyl-5a,5b,8,8,11a-pentamethyl-2-oxo-3,3a,4,5,5a,5b,6,7,7a,8,11,11a,11b,12,13,13a-hexadecahydro-2H-cyclopenta[a]chrysen-9-yl)cyclohex-3-enecarboxylic acid] | 0.008 | 0.018 | –
CC(C)C1=C2[C@H]3CC[C@@H]4[C@@]5(C)CC=C(C6=CCC(C(=O)O)CC6)C(C)(C)[C@@H]5CC[C@@]4(C)[C@]3(C)CC[C@@]2(NCCN(CCN(C)C)Cc2ccc(Cl)cc2)CC1=O (stereo partly drawn) [Example 3, 4-((3aR,5aR,5bR,7aR,11aS,11bR,13aS)-3a-((2-((4-Chlorobenzyl)(2-(dimethylamino)ethyl)amino)ethyl)amino)-1-isopropyl-5a,5b,8,8,11a-pentamethyl-2-oxo-3,3a,4,5,5a,5b,6,7,7a,8,11,11a,11b,12,13,13a-hexadecahydro-2H-cyclopenta[a]chrysen-9-yl)cyclohex-3-enecarboxylic acid] | 0.011 | 0.042 | –
